{"source": "patent US20250108100A1", "about": "“C-TERMINAL FRAGMENT OF APOLIPOPROTEIN E AND APPLICATION THEREOF IN INHIBITING y-SECRETASE ACTIVITY” (SYNPHATEC (SHANGHAI) BIOPHARMACEUTICAL TECHNOLOGY CO., LTD., priority 2022, published 2025)", "key": {"[1]": {"test_system": "human APP co-expressed in HEK 293T cells", "assay": "α-CTF produced by APP co-expressed in HEK 293T cells (Western blot)", "assay_type": "cell-based", "conditions": "Western blot, vs GFP control", "experimental": "• a) A plasmid expressing the target protein in mammalian cells was constructed, and the protein expression promoter is CAG. • b) The target protein was expressed in HEK 293T cell line. Cells were subcultured one day before transfection, and transfection was performed when the degree of cell adhesion reached 70%-80%. The transfection reagent was lipofectamine2000 (ThermoFisher). • c) 4-6 hours post transfection, the medium were replaced with fresh cell culture medium. • d) 36-48 hours post transfection, the cells were lysed (10% 1M tris-HCl (pH=6.8), 4% SDS, 20% glycerol, 0.01% bromophenol blue), and the protein samples were collected and used for Western blot or stored in a −80° C. freezer. • e) Polyacrylamide gel electrophoresis. Before protein loading, the protein was boiled at 98° C. for 10 min, and then centrifuged at 12000 rpm for 10 min. Electrophoresis: 80V for the upper stacking gel; 120V for the lower separating gel. • f) Protein transfer. The filter paper was soaked in the electrophoresis solution before use, and the PVDF membrane was put in methanol for 10s to activate, and the gel after electrophoresis was taken out from the electrophoresis tank, put in the order of filter paper—PVD membrane—gel-filter paper from bottom to top, and they were put into the transfer instrument, with transferring in constant current at 0.1 A for 70 min. • g) Blocking and antibody incubation: the transferred PVDF membrane was placed in 5% BSA/TBST blocking solution, and blocked on a shaker at room temperature for 1 hour. The primary antibody was used to incubate at 4° C. overnight on a shaker (12-16 h); 1×TBST was used to wash three times, once every 10 minutes; the secondary antibody was used to incubate, shaked at room temperature for 1-2 h; 1×TBST was used to wash three times, once every 10 minutes. • h) Imaging by development: development was performed with ECL chemiluminescence hypersensitive chromogenic reagent.\nPlasmids were transfected in HEK 293T or N2A cells for 36-48 hours and then lysed in cell lysis buffer [10% 1M tris-HCl (pH=6.8), 4% SDS, 20% glycerol, 0.01% bromophenol blue]. Lysates were shaken at room temperature for 10 min, then boiled for 10 min, and centrifuged at 12,000×g for 10 min. Proteins were run on 8% or 12% Tris-glycine SDS-PAGE and transferred to PVDF membranes (Life Technologies). Samples were incubated overnight at 4° C. with primary antibody diluted in 5% BSA buffer (in 1×TBST). After washing 3 times with 1×TBST, they were incubated with secondary antibody diluted in 5% BSA buffer (in 1×TBST) for 2 hours at room temperature. Finally, after washing 3 times with 1×TBST, the signal was detected by ECL Western blotting substrate (Solarbio, PE0010).\n(§1) Data were analyzed by GraphPad Prism software (v6) using unpaired, paired, or one-sample t-tests. Aβ40 and Aβ42 levels were normalized to the corresponding GFP controls. α-CTF levels were normalized to FL-APP and corresponding GFP controls. All data are represented as mean±SEM. Statistical significance was defined as p<0.05. One, two, three and four stars (*) in the graph indicate p-values <0.05, <0.01, <0.001 and <0.0001, respectively."}, "[2]": {"test_system": "human APP and β-secretase co-expressed in HEK 293T cells", "assay": "HEK 293T cells co-expressing APP and β-secretase (BACE1): Aβ ELISA and β-CTF Western blot", "assay_type": "cell-based", "conditions": "APP and β-secretase co-expressed, ELISA, vs GFP control", "experimental": "The experiment was performed according to the standard procedure in the ELISA analysis kit of Invitrogen Company. • a) The target protein was expressed in HEK 293T cell line. Cells were subcultured one day before transfection, and transfection was performed when the degree of cell adhesion reached 70%-80%. The transfection reagent was lipofectamine2000 (ThermoFisher). • b) 4-6 hours post transfection, medium were replaced with fresh cell culture medium. • c) 36-48 hours post transfection, the cell culture medium was collected, and then the ELISA process was performed or the cell culture medium was frozen in a −80° C. refrigerator. • d) 50 μl of standard samples and experimental samples were added to each well of the 96-well plate. • e) 50 μl of human-derived Aβ40 or Aβ42 or mouse-derived Aβ40 detection antibody was added to each well of the 96-well plate. • f) The above samples were shaken gently and placed at room temperature for 3 hours. • g) The liquid in the well were removed, and the plate was washed 4 times with 1× wash buffer. • h) 100 μl of the buffer containing 1× anti-Rabbit IgG HRP was added. • i) The plate was shaken gently and placed at room temperature for […]. • j) The liquid in the well were removed, and the well was washed 4 times with 1× wash buffer. • k) 100 μl of Stabilized Chromogen was added to each well, and the plate was placed in the dark for 30 minutes at room temperature. • l) 100 μl of Stop Solution was added to each well. • m) The absorbance at 450 nm was measured with a microplate reader. 2.4 qRT-PCR\n48 hours after transfection of HEK 293T cells and N2A cells, or 4.5 days after lentivirus infection of neurons, media and lysates were collected. Aβ40 and Aβ42 in the culture medium and cell lysates were detected by an Aβ ELISA kit as indicated in the protocol. (Invitrogen Technology; KHB3481 for human Aβ40, KHB3441 for human Aβ42 and KMB3481 for mouse Aβ40).\nas §1"}, "[3]": {"test_system": "HEK 293T cells expressing APP", "assay": "APP-expressing HEK 293T cells co-incubated with culture medium containing secreted ApoE2 or ApoE CT: α-CTF", "assay_type": "cell-based, human", "conditions": "vs GFP control", "experimental": "• a) A plasmid expressing the target protein in mammalian cells was constructed, and the protein expression promoter is CAG. • b) The target protein was expressed in HEK 293T cell line. Cells were subcultured one day before transfection, and transfection was performed when the degree of cell adhesion reached 70%-80%. The transfection reagent was lipofectamine2000 (ThermoFisher). • c) 4-6 hours post transfection, the medium were replaced with fresh cell culture medium. • d) 36-48 hours post transfection, the cells were lysed (10% 1M tris-HCl (pH=6.8), 4% SDS, 20% glycerol, 0.01% bromophenol blue), and the protein samples were collected and used for Western blot or stored in a −80° C. freezer. • e) Polyacrylamide gel electrophoresis. Before protein loading, the protein was boiled at 98° C. for 10 min, and then centrifuged at 12000 rpm for 10 min. Electrophoresis: 80V for the upper stacking gel; 120V for the lower separating gel. • f) Protein transfer. […]"}, "wild-type mice": {"test_system": "wild-type mice", "assay": "Endogenous Aβ40 in brain of wild-type mice after AAV neuronal expression (ELISA)", "assay_type": "in vivo, mouse", "conditions": "hSyn promoter, vs GFP"}}, "note": "“Also recorded” adds a separate entry of the source."}
{"substance": "ApoE2: human apolipoprotein E2, full-length 299 amino acid residues, SEQ ID NO: 12", "values": [{"measurement": "α-CTF produced by co-expressed APP", "setting": "[1]", "value": "can significantly increase α-CTF; also recorded: significantly increased the α-CTF levels"}, {"measurement": "production of Aβ40", "setting": "[2]", "value": "significantly reduces production of Aβ40; also recorded: is reduced; also recorded: significantly reduced Aβ40 levels"}, {"measurement": "α-CTF produced by APP in cells co-incubated with protein in culture medium", "setting": "[3]", "value": "does not significantly alter α-CTF levels; also recorded: does not change the α-CTF; also recorded: does not alter the α-CTF"}, {"measurement": "endogenous Aβ40 in the brain", "setting": "wild-type mice", "value": "also reduce endogenous Aβ40 production; also recorded: reduced endogenous Aβ40 in the brain of mice"}]}
